PMC4786016 (Environmental science & technology, 2015)

Assays:
[1] = molecular target: T1, human PPARγ1 (Homo sapiens, UniProt P37231); test: GeneBLAzer PPARγ1 non-DA reporter gene assay; conditions: for Emax: HEK293, read-out: ATVmax: maximal activation% of the tested compounds relative to rosiglitazone
[2] = test system: PPARγ; conditions: cited from earlier work
[3] = molecular target: T1, human PPARγ1
[4] = test system: PPARγ2; conditions: PPARγ2, U2OS reporter assay; cited from earlier work
[5] = test system: HEK293 cells; test: Alamar Blue cell viability assay; conditions: high doses

Row | Compound | ATVmax: maximal activation% of the tested compounds relative to rosiglitazone [1] [%] | EC15 (concentration inducing 15% activation) [1] [µM] | EC20 (concentration inducing 20% activation) [1] [µM] | [ATVmax]: concentration of the tested compounds to induce the maximal activation% [1] [µM] | concentration at which the compound began to activate PPARγ1 [1] [µM] | efficacy (qualitative, based on ATVmax) [1] | PPARγ binding potency (in words) [2] | NOAEL [3] [µM] | Emax [1] [%] | 5% induction concentration [4] [µM] | cell viability (in words) [5] | PPARγ1 activation (in words) [1]
1 | Oc1c(Br)ccc(Oc2ccc(Br)cc2Br)c1Br [3-OH-BDE47, 3-hydroxide-2,2′,4,4′-tetrabromodiphenyl ether (metabolite)] | 42 | 2.01 | 2.993 | 7 | 0.8 | ++++ (key: + 7–20%; ++ 20–30%; +++ 30–40%; ++++ 40–50%; +++++ >50%) | comparable binding potency to rosiglitazone | 0.8 |  |  |  | 
2 | Brc1ccc(Oc2ccc(Br)cc2Br)c(Br)c1 [BDE47, 2,2′,4,4′-tetrabromodiphenyl ether] |  | 5.2 | 7 | 7 |  | ++ (key: + 7–20%; ++ 20–30%; +++ 30–40%; ++++ 40–50%; +++++ >50%) |  | 0.8 | 20 | 10 |  | 
3 | CCCCC(CC)COC(=O)c1c(Br)c(Br)c(Br)c(Br)c1C(=O)O (stereo not drawn) [TBMEHP, mono-(2-ethyhexyl) tetrabromophthalate (metabolite)] | 40 | 0.53 | 0.78 | 3.3 |  | ++++ (key: + 7–20%; ++ 20–30%; +++ 30–40%; ++++ 40–50%; +++++ >50%) |  | 0.13 |  |  | reduced viability at higher dosing levels | 
4 | Oc1cc(Cl)ccc1Oc1ccc(Cl)cc1Cl [TCS, triclosan] |  |  |  |  |  |  | moderate binding potency |  | < 8 |  |  | did not initiate any activation of PPARγ1
5 | di-isopropylated triaryl phosphates [Di-ITP] | 16 | 3.25 |  | 3.6 |  | + (key: + 7–20%; ++ 20–30%; +++ 30–40%; ++++ 40–50%; +++++ >50%) |  | 1.2 |  |  | Highly reduced cell viability | 
6 | monoisopropylated triaryl phosphates [mono-ITP] | 15 | 3.6 |  | 3.6 |  | + (key: + 7–20%; ++ 20–30%; +++ 30–40%; ++++ 40–50%; +++++ >50%) |  | 1.2 |  |  | Highly reduced cell viability | 
7 | tri(2-butoxyethanol) phosphate [TBOEP] | 13 |  |  | 11 |  | + (key: + 7–20%; ++ 20–30%; +++ 30–40%; ++++ 40–50%; +++++ >50%) | significant binding potential at the highest dose level tested |  |  |  |  | 
8 | tri-isopropylated triaryl phosphates [Tri-ITP] | 41 | 5.7 | 7.76 | 33 | 1.2 | ++++ (key: + 7–20%; ++ 20–30%; +++ 30–40%; ++++ 40–50%; +++++ >50%) |  | 1.2 |  |  |  | 
